According to US7723368B2, “Amino-5-[4-(difluoromethoxy)phenyl]-5-phenylimidazolone compounds for the inhibition of beta-secretase” (Wyeth LLC, priority 2007, dated 2010):

Biological target: human BACE1 (Homo sapiens, UniProt P56817)
Assay: BACE1 fluorescent kinetic assay (cleavage of peptide substrate WABC-6)
Assay type: biochemical
Settings: Activity Table, Examples 1-108; 10 nM enzyme, 25 μM substrate WABC-6, pH 4.5, room temperature
Experimental: Evaluation of BACE1 Binding Affinity of Test Compounds
Fluorescent Kinetic Assays
Dilution and mixing steps: total reaction volume: 100 μL
100 μM substrate dilution in 1×PBS was prepared, and
Fluorescence Readings: Readings at λex 320 nm and λem 420 nm are taken every 40 sec for 30 min at room temperature and the linear slope for substrate cleavage rate (vi) determined.

Sequence of human BACE1 (P56817 46-501): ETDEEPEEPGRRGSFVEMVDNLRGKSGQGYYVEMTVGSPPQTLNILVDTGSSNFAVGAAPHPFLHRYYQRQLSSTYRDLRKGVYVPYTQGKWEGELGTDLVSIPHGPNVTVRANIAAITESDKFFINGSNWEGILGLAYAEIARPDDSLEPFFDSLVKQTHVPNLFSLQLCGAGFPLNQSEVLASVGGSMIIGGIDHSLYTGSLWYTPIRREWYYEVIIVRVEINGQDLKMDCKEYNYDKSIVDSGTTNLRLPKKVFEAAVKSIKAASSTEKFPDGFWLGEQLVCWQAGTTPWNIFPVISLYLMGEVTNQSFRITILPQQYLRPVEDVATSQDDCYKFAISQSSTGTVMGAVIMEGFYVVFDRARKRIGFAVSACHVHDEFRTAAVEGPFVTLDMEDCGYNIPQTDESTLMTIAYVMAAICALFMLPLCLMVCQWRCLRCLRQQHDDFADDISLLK

Which IC50 does the source give for `C=CCCOc1cccc(C2(c3ccc(OC(F)F)cc3)N=C(N)N(C)C2=O)c1` (stereo not shown) [Example 8, 2-amino-5-[3-(but-3-en-1-yloxy)phenyl]-5-[4-(difluoromethoxy)-phenyl]-3-methyl-3,5-dihydro-4H-imidazol-4-one] here?
Its IC50 is < 100 nM.

`C=CCCOc1cc(C2(c3ccc(OC(F)F)cc3)N=C(N)N(C)C2=O)ccc1F` (stereo not shown) [Example 9, 2-amino-5-[3-(but-3-en-1-yloxy)-4-fluorophenyl]-5-[4-(difluoromethoxy)phenyl]-3-methyl-3,5-dihydro-4H-imidazol-4-one] was tested. Which IC50 did it give?
Its IC50 is < 100 nM.

With `C=CCCOc1cccc([C@@]2(c3ccc(OC(F)F)cc3)N=C(N)N(C)C2=O)c1` [Example 10A, (5R)-2-amino-5-[3-(but-3-en-1-yloxy)phenyl]-5-[4-(difluoromethoxy)phenyl]-3-methyl-3,5-dihydro-4H-imidazol-4-one] as the compound, how does the IC50 read?
The IC50 was < 100 nM.

`C=CCCOc1cccc([C@]2(c3ccc(OC(F)F)cc3)N=C(N)N(C)C2=O)c1` [Example 10B, (5S)-2-amino-5-[3-(but-3-en-1-yloxy)phenyl]-5-[4-(difluoromethoxy)phenyl]-3-methyl-3,5-dihydro-4H-imidazol-4-one] was tested. Which IC50 did it give?
Its IC50 is 110 to 1000 nM.

With `C=CCCCOc1cccc([C@@]2(c3ccc(OC(F)F)cc3)N=C(N)N(C)C2=O)c1` [Example 10C, (R)-2-amino-4-(4-(difluoromethoxy)phenyl)-1-methyl-4-(3-(pent-4-enyloxy)phenyl)-1H-imidazol-5(4H)-one] as the compound, how does the IC50 read?
Its IC50 is < 100 nM.

With `C=CC[C@@H](C)Oc1cccc([C@@]2(c3ccc(OC(F)F)cc3)N=C(N)N(C)C2=O)c1` [Example 10D, (R)-2-amino-4-(4-(difluoromethoxy)phenyl)-1-methyl-4-(3-((R)-pent-4-en-2-yloxy)phenyl)-1H-imidazol-5(4H)-one] as the compound, how does the IC50 read?
Its IC50 is < 100 nM.

`C=CC[C@H](C)Oc1cccc([C@@]2(c3ccc(OC(F)F)cc3)N=C(N)N(C)C2=O)c1` [Example 10E, (R)-2-amino-4-(4-(difluoromethoxy)phenyl)-1-methyl-4-(3-((S)-pent-4-en-2-yloxy)phenyl)-1H-imidazol-5(4H)-one] was tested. Which IC50 did it give?
The IC50 was 110 to 1000 nM.

`C=CC(C)COc1cccc([C@@]2(c3ccc(OC(F)F)cc3)N=C(N)N(C)C2=O)c1` (stereo partly drawn) [Example 10F, (4R)-2-amino-4-(4-(difluoromethoxy)phenyl)-1-methyl-4-(3-(2-methylbut-3-enyloxy)phenyl)-1H-imidazol-5(4H)-one] was tested. Which IC50 did it give?
The IC50 was < 100 nM.

`C=C(C)CCOc1cccc([C@@]2(c3ccc(OC(F)F)cc3)N=C(N)N(C)C2=O)c1` [Example 10G, (R)-2-amino-4-(4-(difluoromethoxy)phenyl)-1-methyl-4-(3-(3-methylbut-3-enyloxy)phenyl)-1H-imidazol-5(4H)-one] was tested. Which IC50 did it give?
Its IC50 is < 100 nM.

For `C=CCOc1cccc([C@@]2(c3ccc(OC(F)F)cc3)N=C(N)N(C)C2=O)c1` [Example 10H, (R)-4-(3-(allyloxy)phenyl)-2-amino-4-(4-(difluoromethoxy)phenyl)-1-methyl-1H-imidazol-5(4H)-one], which IC50 is on record?
Its IC50 is < 100 nM.

Which IC50 does the source give for `CN1C(=O)[C@@](c2ccc(OC(F)F)cc2)(c2cccc(CCCCC#N)c2)N=C1N` [Example 11A, 5-(3-{(4R)-2-amino-4-[4-(difluoromethoxy)phenyl]-1-methyl-5-oxo-4,5-dihydro-1H-imidazol-4-yl}phenyl)pentanenitrile] here?
Its IC50 is < 100 nM.

Which IC50 does the source give for `CN1C(=O)[C@](c2ccc(OC(F)F)cc2)(c2cccc(CCCCC#N)c2)N=C1N` [Example 11B, 5-(3-{(4S)-2-amino-4-[4-(difluoromethoxy)phenyl]-1-methyl-5-oxo-4,5-dihydro-1H-imidazol-4-yl}phenyl)pentanenitrile] here?
Its IC50 is > 1000 nM.

`CN1C(=O)C(c2ccc(OC(F)F)cc2)(c2cccc(C#CCCCF)c2)N=C1N` (stereo not shown) [Example 19D, 2-amino-5-[4-(difluoromethoxy)phenyl]-5-[3-(5-fluoropent-1-yn-1-yl)phenyl]-3-methyl-3,5-dihydro-4H-imidazol-4-one] was tested. Which IC50 did it give?
Its IC50 is < 100 nM.

Which IC50 does the source give for `CN1C(=O)[C@@](c2ccc(OC(F)F)cc2)(c2cccc(C#CCCCF)c2)N=C1N` [Example 19E, (5R)-2-amino-5-[4-(difluoromethoxy)phenyl]-5-[3-(5-fluoropent-1-yn-1-yl)phenyl]-3-methyl-3,5-dihydro-4H-imidazol-4-one] here?
Its IC50 is < 100 nM.

`CN1C(=O)[C@](c2ccc(OC(F)F)cc2)(c2cccc(C#CCCCF)c2)N=C1N` [Example 19F, (5S)-2-amino-5-[4-(difluoromethoxy)phenyl]-5-[3-(5-fluoropent-1-yn-1-yl)phenyl]-3-methyl-3,5-dihydro-4H-imidazol-4-one] was tested. Which IC50 did it give?
The IC50 was > 1000 nM.

Which IC50 does the source give for `CN1C(=O)C(c2ccc(OC(F)F)cc2)(c2ccc(F)c(C#CCCCCl)c2)N=C1N` (stereo not shown) [Example 20A, 2-amino-5-[3-(5-chloropent-1-yn-1-yl)-4-fluorophenyl]-5-[4-(difluoromethoxy)phenyl]-3-methyl-3,5-dihydro-4H-imidazol-4-one] here?
Its IC50 is < 100 nM.

`CN1C(=O)C(c2ccc(OC(F)F)cc2)(c2cccc(C#CCCCCl)c2)N=C1N` (stereo not shown) [Example 20B, 2-amino-5-[3-(5-chloropent-1-yn-1-yl)-phenyl]-5-[4-(difluoromethoxy)phenyl]-3-methyl-3,5-dihydro-4H-imidazol-4-one] was tested. Which IC50 did it give?
Its IC50 is < 100 nM.

How did the IC50 turn out when `CCC(=O)Nc1cccc(C2(c3ccc(OC(F)F)cc3)N=C(N)N(C)C2=O)c1` (stereo not shown) [Example 21] was run?
Its IC50 is 110 to 1000 nM.

Which IC50 does the source give for `CCCC(=O)Nc1cccc(C2(c3ccc(OC(F)F)cc3)N=C(N)N(C)C2=O)c1` (stereo not shown) [Example 22] here?
The IC50 was 110 to 1000 nM.

`CCCCC(=O)Nc1cccc(C2(c3ccc(OC(F)F)cc3)N=C(N)N(C)C2=O)c1` (stereo not shown) [Example 23] was tested. Which IC50 did it give?
The IC50 was 110 to 1000 nM.

`CN1C(=O)C(c2ccc(OC(F)F)cc2)(c2cccc(NC(=O)CCCl)c2)N=C1N` (stereo not shown) [Example 24] was tested. Which IC50 did it give?
The IC50 was 110 to 1000 nM.

With `CN1C(=O)C(c2ccc(OC(F)F)cc2)(c2cccc(NC(=O)C(F)(F)F)c2)N=C1N` (stereo not shown) [Example 25] as the compound, how does the IC50 read?
The IC50 was < 100 nM.

`CC(C)CC(=O)Nc1cccc(C2(c3ccc(OC(F)F)cc3)N=C(N)N(C)C2=O)c1` (stereo not shown) [Example 26] was tested. Which IC50 did it give?
The IC50 was < 100 nM.

How did the IC50 turn out when `CC(C)C(=O)Nc1cccc(C2(c3ccc(OC(F)F)cc3)N=C(N)N(C)C2=O)c1` (stereo not shown) [Example 27] was run?
The IC50 was 110 to 1000 nM.

How did the IC50 turn out when `CN1C(=O)C(c2ccc(OC(F)F)cc2)(c2cccc(NC(=O)C3CC3)c2)N=C1N` (stereo not shown) [Example 28] was run?
The IC50 was 110 to 1000 nM.

`CN1C(=O)C(c2ccc(OC(F)F)cc2)(c2cccc(NC(=O)C3CCC3)c2)N=C1N` (stereo not shown) [Example 29] was tested. Which IC50 did it give?
Its IC50 is 110 to 1000 nM.

With `CC=CC(=O)Nc1cccc(C2(c3ccc(OC(F)F)cc3)N=C(N)N(C)C2=O)c1` (stereo not shown) [Example 30] as the compound, how does the IC50 read?
Its IC50 is 110 to 1000 nM.

For `CC(C)=CC(=O)Nc1cccc(C2(c3ccc(OC(F)F)cc3)N=C(N)N(C)C2=O)c1` (stereo not shown) [Example 31], which IC50 is on record?
The IC50 was > 1000 nM.

Which IC50 does the source give for `CN1C(=O)C(c2ccc(OC(F)F)cc2)(c2cccc(NC(=O)C=Cc3ccccc3)c2)N=C1N` (stereo not shown) [Example 32] here?
Its IC50 is 110 to 1000 nM.

Which IC50 does the source give for `CN1C(=O)C(c2ccc(OC(F)F)cc2)(c2cccc(NC(=O)c3ccco3)c2)N=C1N` (stereo not shown) [Example 33] here?
Its IC50 is < 100 nM.

For `CN1C(=O)C(c2ccc(OC(F)F)cc2)(c2cccc(NC(=O)COCc3ccccc3)c2)N=C1N` (stereo not shown) [Example 34], which IC50 is on record?
Its IC50 is 110 to 1000 nM.

`CN1C(=O)C(c2ccc(OC(F)F)cc2)(c2cccc(NC(=O)c3ccccc3)c2)N=C1N` (stereo not shown) [Example 35] was tested. Which IC50 did it give?
Its IC50 is 110 to 1000 nM.

For `CN1C(=O)C(c2ccc(OC(F)F)cc2)(c2cccc(NC(=O)C(Cl)(Cl)Cl)c2)N=C1N` (stereo not shown) [Example 36], which IC50 is on record?
The IC50 was < 100 nM.

For `CN1C(=O)C(c2ccc(OC(F)F)cc2)(c2cccc(NC(=O)c3sccc3Br)c2)N=C1N` (stereo not shown) [Example 39], which IC50 is on record?
The IC50 was < 100 nM.

Which IC50 does the source give for `CN1C(=O)C(c2ccc(OC(F)F)cc2)(c2cccc(NC(=O)c3coc4ccccc34)c2)N=C1N` (stereo not shown) [Example 40] here?
The IC50 was < 100 nM.

How did the IC50 turn out when `CN1C(=O)C(c2ccc(OC(F)F)cc2)(c2cccc(NC(=O)c3cccs3)c2)N=C1N` (stereo not shown) [Example 42] was run?
The IC50 was 110 to 1000 nM.

`CCCNc1cccc(C2(c3ccc(OC(F)F)cc3)N=C(N)N(C)C2=O)c1` (stereo not shown) [Example 43] was tested. Which IC50 did it give?
Its IC50 is < 100 nM.

`CCCCNc1cccc(C2(c3ccc(OC(F)F)cc3)N=C(N)N(C)C2=O)c1` (stereo not shown) [Example 44] was tested. Which IC50 did it give?
The IC50 was < 100 nM.

`CC(C)CNc1cccc(C2(c3ccc(OC(F)F)cc3)N=C(N)N(C)C2=O)c1` (stereo not shown) [Example 45] was tested. Which IC50 did it give?
Its IC50 is < 100 nM.

How did the IC50 turn out when `CC(C)Nc1cccc(C2(c3ccc(OC(F)F)cc3)N=C(N)N(C)C2=O)c1` (stereo not shown) [Example 46] was run?
Its IC50 is 110 to 1000 nM.

For `CN1C(=O)C(c2ccc(OC(F)F)cc2)(c2cccc(NC3CCCC3)c2)N=C1N` (stereo not shown) [Example 47], which IC50 is on record?
Its IC50 is < 100 nM.

With `CN1C(=O)C(c2ccc(OC(F)F)cc2)(c2cccc(NC3CCCCC3)c2)N=C1N` (stereo not shown) [Example 48] as the compound, how does the IC50 read?
The IC50 was 110 to 1000 nM.

With `CN1C(=O)C(c2ccc(OC(F)F)cc2)(c2cccc(NC3CCC3)c2)N=C1N` (stereo not shown) [Example 50] as the compound, how does the IC50 read?
Its IC50 is 110 to 1000 nM.

Which IC50 does the source give for `CN1C(=O)C(c2ccc(OC(F)F)cc2)(c2cccc(NCc3ccco3)c2)N=C1N` (stereo not shown) [Example 51] here?
Its IC50 is < 100 nM.

With `CN1C(=O)C(c2ccc(OC(F)F)cc2)(c2cccc(C3CC(=CCO)C3)c2)N=C1N` (stereo not shown) [Example 56, 2-amino-5-[4-(difluoromethoxy)phenyl]-5-{3-[3-(2-hydroxyethylidene)cyclobutyl]phenyl}-3-methyl-3,5-dihydro-4H-imidazol-4-one] as the compound, how does the IC50 read?
Its IC50 is > 1000 nM.

How did the IC50 turn out when `CN1C(=O)C(c2ccc(OC(F)F)cc2)(c2cccc(C3CC(CCF)C3)c2)N=C1N` (stereo not shown) [Example 58, 2-amino-5-[4-(difluoromethoxy)phenyl]-5-{3-[3-(2-fluoroethyl)cyclobutyl]phenyl}-3-methyl-3,5-dihydro-4H-imidazol-4-one] was run?
The IC50 was 110 to 1000 nM.

`COCCC1CC(c2cccc(C3(c4ccc(OC(F)F)cc4)N=C(N)N(C)C3=O)c2)C1` (stereo not shown) [Example 59, 2-amino-5-[4-(difluoromethoxy)phenyl]-5-{3-[3-(2-methoxyethyl)cyclobutyl]phenyl}-3-methyl-3,5-dihydro-4H-imidazol-4-one] was tested. Which IC50 did it give?
The IC50 was 110 to 1000 nM.

`CN1C(=O)C(c2ccc(OC(F)F)cc2)(c2cccc(Nc3ccccc3)c2)N=C1N` (stereo not shown) [Example 60, 2-amino-5-(3-anilinophenyl)-5-[4-(difluoromethoxy)phenyl]-3-methyl-3,5-dihydro-4H-imidazol-4-one] was tested. Which IC50 did it give?
The IC50 was 110 to 1000 nM.

With `CC(C)NCc1cccc(C2(c3ccc(OC(F)F)cc3)N=C(N)N(C)C2=O)c1` (stereo not shown) [Example 61, 2-Amino-5-(4-difluoromethoxy-phenyl)-5-[3-(isopropylamino-methyl)-phenyl]-3-methyl-3,5-dihydro-imidazol-4-one] as the compound, how does the IC50 read?
Its IC50 is 110 to 1000 nM.
